Counter-ions that a name gives are not always drawn.
Assays:
[1] = test system: mice; assay: Writhing Assay (PBQ-induced writhing, analgesic activity in mice); format: in vivo, mouse (Charles River male albino mice); conditions: for WRITHING ASSAY Number Out of Ten (number of mice out of ten in which a test compound produced analgesia): 30 mg per kilogram i.g., 30 min before PBQ i.p., writhes <= one-half median of saline control
From the text: The Writhing Assay is one of the most widely-used experimental procedures for measuring the analgesic activity of different narcotic and nonnarcotic analgesic agents, and involves the continuous, chemically-induced pain of visceral origin to an animal, such as a mouse or rat. [Gyires et al., Arch. int. Pharmacodyn, 267, 131-140 (1984); […] al., Fed. Proc., 15, 494 (1956); Koster et al., Fed. Proc., 18, 412 (1959); and Witken et al., J. Pharmacol. exp. Ther., 133, 400-408 (1961).] Chemicals which may be used to induce this pain include phenylbenzoquinone (PBQ) and acetic acid. As a result of the chemical irritation to the animal, a characteristic stretching and writhing of the animal (dorsiflexion of the animal's back, extension of its hindlimbs and the strong contraction of its abdominal musculature) will generally occur. […] Drugs which reduce the number of writhes of the animal appear to restore the normal nociceptive threshold of the animal. […] Charles River male albino mice, weighing 20 to 30 grams, were used in this assay. Thirty minutes after intragastric administration to ten mice of 30 mg per kilogram of body weight of a compound of the present invention ("test compound"), […] of body weight of a 0.025% w/v solution of PBQ was injected intraperitoneally into each mouse. Ten mice which were given saline in place of a test compound of the invention were used as a control group. Five minutes later, each mouse was individually placed into a glass beaker for observation, and the number of writhes occurring during the following ten-minute period was counted. A test compound was considered to have produced analgesia in a mouse if, in accordance with the conditions set forth above, and under the test criteria employed for this assay, after the administration of 30 mg per kilogram of body weight of a compound of the present invention to the mouse, the number of writhes elicited by a mouse injected with PBQ was equal to, or less than, one-half the median number of writhes recorded for the saline-treated control group of mice that day, as described by Taber in "Predictive Value of Analgesic Assays in Mice and Rats," Advances in Biochemical Psychopharmacology, 8, 191 (1974). The results for the particular compounds of the present invention analyzed in this assay, and discussed in the examples identified below which correspond thereto, are presented in Table 1 hereinbelow as fractions under the heading "WRITHING ASSAY." The fractions indicate the number of mice out of ten in which a test compound produced analgesia. The standard initial screening dose of a test compound employed in this assay was […]. If this initial screening dose of the test compound produced analgesia in seven out of ten mice, then the effect of additional doses of the test compound on the writhing response was evaluated, and then the ED50 dose was generally calculated. (The slopes of the dose-response curves for all test compounds analyzed were compared as described by Tallarida and Murray, Manual of Pharmacologic Calculations, Page 11 (Springer Verlag, New York, 1981)). All ED50 doses calculated are also presented in Table 1 hereinbelow under the heading "WRITHING ASSAY," but as whole numbers.

[2] = test system: prostaglandin E2-induced contractions of segments of guinea pig ileum; assay: Prostaglandin (PGE) Antagonism Assay (inhibition of prostaglandin E2-induced contractions of guinea pig ileum segments); conditions: ratio of prostaglandin E2 EC50 with/without test compound; initial concentration 3 micromolar; 30 min incubation; 37° C.; active if dose ratio >= 2
Method: In order to determine the effectiveness of several of the compounds of the present invention ("test compounds") as prostaglandin E2 antagonists,a prostaglandin antagonism assay was conducted, as described below, to determine the ability of these compounds to inhibit prostaglandin E2 -induced contractions of segments of guinea pig ileum. […] Male albino guinea pigs weighing 200 to 500 grams were sacrificed by cervical dislocation. The ilea were then quickly removed from the guinea pigs and placed in a modified Tyrode solution, a solution which is known to those skilled in the art, containing one-half of the usual amount of magnesium ions. Segments of ileum about 2 cm long were then cut and mounted in a 10 mL tissue bath containing the modified Tyrode solution. The solution was maintained at 37° C. and aerated with a gaseous mixture of 95% oxygen and 5% carbon dioxide. Data for a control prostaglandin E2 dose response curve plotting concentration of prostaglandin E2 versus the intensity of contractions, detected isotonically, was then obtained by experimentally adjusting the dose of the prostaglandin E2 being injected into the tissue bath, in a manner known by those of skill in the art. Solutions or suspensions containing an initial concentration (3 micromolar) of a test compound in modified Tyrode solution ("test solutions/suspensions") were then separately substituted for the control bath solution. Each test solution/suspension was then kept in constant contact with the ileum tissue, except for brief periods to drain the bath in preparation for rinsing with fresh test solution/suspension. A second prostaglandin E2 dose response curve was then generated for prostaglandin E2 in the presence of a test compound. A control dose response curve is produced in isolated segments of guinea pig ileum mounted in an automated apparatus with six concentrations of prostaglandin E2. A solution or suspension of test compound is substituted for the control bathing solution and is incubated for thirty minutes. An additional prostaglandin E2 dose response curve is then performed in the presence of the test compound. A dose ratio is calculated from the EC50 values obtained from duplicate replications on each concentration of the test compound. […] A dose ratio of EC50 doses was calculated from the results of each test in a manner known by those of skill in the art, and described above. A test compound was determined to be "active" if the initial concentration used yielded at least a two-fold shift (dose ratio greater than or equal to 2) in the dose response curve for prostaglandin E2. The compounds of the present invention which were tested in this assay, and for which results are presented in Table 1, correspond to the particular examples specified in Table 1.

Row | SMILES | WRITHING ASSAY Number Out of Ten (number of mice out of ten in which a test compound produced analgesia) [1] | ED50 ([1]; Mus musculus, po, intragastric, PBQ i.p., dose producing analgesia in 50% of the animals, read-out: WRITHING ASSAY ED50 Dose I.G.) [mg/kg] | PGE ANTAGONISM IN GUINEA PIG ILEUM Dose Ratio [2]
1 | CCOC(=O)C1CN(c2c(N3Cc4ccccc4Oc4ccc(Cl)cc43)c(=O)c2=O)CCN1c1ccccc1 (stereo not drawn) [Example 4, Ethyl 4-[2-(8-chlorodibenz[b,f][1,4]oxazepin-10(11H)-yl)-3,4-dioxo-1-cyclobuten-1-yl]-1-phenyl-2-piperazinecarboxylate] | 4/10 | – | –
2 | Cl.O=c1c(NCc2ccncc2)c(N2Cc3ccccc3Oc3ccc(Cl)cc32)c1=O [Example 7, 3-(8-Chlorodibenz[b,f][1,4]oxazepin-10(11H)-yl)-4-[(4-pyridinylmethyl)amino]-3-cyclobutene-1,2-dione, hydrochloride] | – | 9.7 | 22 ± 5
3 | CCN1CCN(c2c(N3Cc4ccccc4Oc4ccc(Cl)cc43)c(=O)c2=O)CC1 [Example 2, 3-(8-Chlorodibenz[b,f][1,4]oxazepin-10(! ! H)-yl)-4-(4-ethyl-1-piperazinyl)-3-cyclobutene-1,2-dione, monohydrochloride] | 6/10 | – | 5.0 ± 2.6
4 | O=c1c(N2Cc3ccccc3Oc3ccc(Cl)cc32)c(N2Cc3ccccc3Oc3ccc(Cl)cc32)c1=O [Example 8, 3,4-bis[8-chlorodibenz[b,f][1,4]oxazepin-10(11H) -yl]-3-cyclobutene-1,2-dione] | 6/10 | – | 1.9 ± 0.9
5 | CN(C)CCNc1c(N2Cc3ccccc3Oc3ccc(Cl)cc32)c(=O)c1=O.Cl [Example 6, 3-(8-Chlorodibenz[b,f][1,4]oxazepin-10(11H)-yl)-4-[[2-(dimethylamino)ethyl]amino]-3-cyclobutene-1,2-dione, hydrochloride] | 6/10 | – | 6.8 ± 4.5

From patent US5354746A, “Squaric acid derivatives of substituted dibenzoxazepine compounds, pharmaceutical compositions and methods of use” (G. D. Searle & Co., priority 1993, dated 1994)
